This is an account of results in patent US6875773B1, “Combination therapy for treatment of FIV infection” (priority 1998, dated 2005).

For one experiment, the system named is FIVPet. The experiment can be described thus: Anti-FIV activity (RT activity in supernatant) in feline T-cell line chronically infected with FIVPet (FL-4 cells). It is filed as cell-based, Feline immunodeficiency virus. The conditions noted are these: nontoxic doses. On the procedure: (§1) The antiviral activity of the drugs at noncytotoxic doses were evaluated in feline T-cell lines chronically infected with either FIVPet (subtype A strain) (panel A), or FIVBang (subtype B strain) (panel B). The RT data are presented as % control, whereby % control represents RT mean of triplicate treated cultures divided by RT mean of triplicate untreated cultures and multiplied by 100. The RT data on harvest days at 6, 9, and 12 are shown.
(§2) In the first set of in vitro studies, feline T-cell lines chronically infected with FIVPet, (FL-4 cells) or FIVBang, (FIVBang/FeT-J cells) at 2×10^5 cells/ml were treated for 3 weeks with a single drug or various combinations of AZT, 3TC, an FIV protease inhibitor (FIV-PI; Hoescht-Bayer HBY-793), and HIV protease inhibitors (HIV-PI) (FIGS. 1A and 1B). Saquinavir (SQV) and Indinavir (IDV) were used as the HIV-PIs. Culture supernatants were harvested and the cells were resuspended in fresh culture media containing appropriate drug(s) at […]. Viral replication was determined by measuring the levels of reverse transcriptase (RT) activity in the culture supernatants (Rey et al., 1984). Drug toxicity in these cultures were monitored by viability and absolute cell count analyses using trypan blue exclusion method (Mishell et al., 1980).
(§3) Single and combination drug doses which were determined to be nontoxic to the test cells were used in these studies.

In experiment [1] the test system is FIVBang. The experiment can be described thus: Anti-FIV activity (RT activity in supernatant) in feline T-cell line chronically infected with FIVBang (FIVBang/FeT-J cells). Conditions: nontoxic doses. The class given is cell-based, Feline immunodeficiency virus. As to the method:
as §1, §2, §3

Experiment [2] concerns FIVBang. The experiment can be described thus: Anti-FIV activity (RT activity) in primary cat PBMC infected with FIVBang. It is filed as cell-based, Feline immunodeficiency virus. Conditions: for FIV replication in PBMC (RT activity), result in words: FIVBang 100 TCID50, drug added immediately before inoculation, nontoxic doses; for effect of adding the protease inhibitor to the AZT/3TC combination on antiviral activity: FIVBang. As to the method: Nucleoside analogue and PI doses were 0.1 μM in Experiment 1 (panel A) and 0.05 μM and 0.01 μM, respectively, in Experiment 2 (panel B).
(§4) As a means to simulate in vivo conditions, primary peripheral blood mononuclear cells (PBMC) from specific pathogen free (SPF) cats were next used as the indicator cells. Primary PBMC isolated by ficoll hypaque method were stimulated with concanavalin A for 3 days and cultured for an additional 2 weeks before their use in drug studies (Staszewski, 1995). Antiretroviral drug(s) were added to the PBMC cultures (1×10^6 cells/ml) immediately before FIVBang, (subtype B) or FIVUK-8(subtype A) inoculation of 100 50% tissue culture infectious dose (TCID50).

The next experiment deals with FIVUK-8. The experiment can be described thus: Anti-FIV activity (RT activity) in primary cat PBMC infected with FIVUK-8. Conditions: for FIV replication in PBMC (RT activity), result in words: FIVUK-8 100 TCID50, drug added immediately before inoculation, nontoxic doses; for effect of adding the protease inhibitor to the AZT/3TC combination on antiviral activity: FIVUK-8. The class given is cell-based, Feline immunodeficiency virus. On the procedure: Nucleoside analogue and P1 doses were 0.1 μM and 0.01-0.5 μM, respectively, in Experiment 1 (panel A) and 0.05 μM and 0.01-0.5 μM respectively, in Experiment 2 (panel B).
as §4

A further experiment addresses FIV protease (Feline immunodeficiency virus, UniProt P16088). Conditions: Dunn et al., 1994; Wlodawer et al., 1995; cited from earlier work.
For a further experiment, the target named is HIV protease (Human immunodeficiency virus type 1 group M subtype B, UniProt P04585). Conditions: Dunn et al., 1994; Wlodawer et al., 1995; cited from earlier work.
Another experiment has as its system FIV. The conditions noted are these: background statement, no reference given; cited from earlier work.

Turning to `CC(C)[C@H](NC(=O)[C@H](Cc1cccc2ccccc12)CS(=O)(=O)C(C)(C)C)C(=O)N[C@@H](Cc1ccccc1)[C@H](O)[C@H](O)[C@H](Cc1ccccc1)NC(=O)[C@@H](NC(=O)[C@H](Cc1cccc2ccccc12)CS(=O)(=O)C(C)(C)C)C(C)C` [FIV-PI], the “inhibition of RT activity / FIV replication” value in the experiment on FIVPet (treated for 3 weeks) and in the experiment on FIVBang [1] (treated for 3 weeks) was 70-80% throughout. In addition, the “FIV replication in PBMC (RT activity), result in words” value (shortened to “FIV replication in PBMC (RT activity)”) with FIVBang [2] and with FIVUK-8 was “inhibited FIV replication” throughout. For the same molecule, at FIV protease, the “binding to FIV protease” value was “efficiently binds”. Moreover, the “binding to HIV protease” value at HIV protease was “efficiently binds”.

For `CC(C)(C)NC(=O)[C@@H]1CN(Cc2cccnc2)CCN1C[C@@H](O)C[C@@H](Cc1ccccc1)C(=O)N[C@H]1c2ccccc2C[C@H]1O` [IDV, Indinavir], the “anti-FIV activity (RT activity), result in words” value with FIVPet and in the experiment on FIVBang [1] was “neither SQV nor IDV alone had significant anti-FIV effect” each time. For the same molecule, the “effect of adding the protease inhibitor to the AZT/3TC combination on antiviral activity” value in the experiment on FIVBang [2] and in the experiment on FIVUK-8 was “did not enhance the antiviral activity of the AZT/3TC combination” each time. Also, the “FIV replication in PBMC (RT activity)” value in the experiment on FIVBang [2] and with FIVUK-8 was “lack of anti-FIV activity” each time. Besides, the “FIV replication in PBMC in vitro” value in the experiment on FIV is recorded as “do not inhibit FIV replication”.

As for `Cc1c(O)cccc1C(=O)N[C@@H](CSc1ccccc1)[C@H](O)CN1C[C@H]2CCCC[C@H]2C[C@H]1C(=O)NC(C)(C)C` [Nelfinavir], the “FIV replication in PBMC in vitro” value in the experiment on FIV is given as “do not inhibit FIV replication”.

Consider `CC(C)c1nc(CN(C)C(=O)N[C@H](C(=O)N[C@@H](Cc2ccccc2)C[C@H](O)[C@H](Cc2ccccc2)NC(=O)OCc2cncs2)C(C)C)cs1` [Ritonavir], for which the “FIV replication in PBMC in vitro” value in the experiment with FIV is given as “do not inhibit FIV replication”.

`CC(C)(C)NC(=O)[C@@H]1C[C@@H]2CCCC[C@@H]2CN1C[C@@H](O)[C@H](Cc1ccccc1)NC(=O)[C@H](CC(N)=O)NC(=O)c1ccc2ccccc2n1` [SQV, Saquinavir]: the “anti-FIV activity (RT activity), result in words” value with FIVPet and with FIVBang [1] was “neither SQV nor IDV alone had significant anti-FIV effect” each time. Further, the “effect of adding the protease inhibitor to the AZT/3TC combination on antiviral activity” value with FIVBang [2] and in the experiment on FIVUK-8 was “did not enhance the antiviral activity of the AZT/3TC combination” each time. For the same molecule, the “FIV replication in PBMC (RT activity)” value in the experiment on FIVBang [2] and with FIVUK-8 was “lack of anti-FIV activity” each time. The “FIV replication in PBMC in vitro” value in the experiment with FIV is “do not inhibit FIV replication”.
